Assays:
Format in all cases: biochemical
[1] = test system: superoxide, formed in a xanthine-xanthine oxidase system; assay: Active oxygen eliminating activity of powdery carrot compositions with saccharides before and after storage, nitro blue tetrazolium (NBT) test (Experiment 3); conditions: for Activity (unit/g) After storage / Percentage of residual activity (%) / Activity (unit/g) Before storage: powdery carrot composition; for Activity (unit/g) After storage / Percentage of residual activity (%): saccharide added at 10% d.s.b., stored at 40° C. for seven days; for Activity (unit/g) Before storage: saccharide added to disrupted carrots at 10% d.s.b.; for residual percentage / reduction inhibitory activity for active oxygen eliminating activity among the saccharides tested: powdery carrot compositions, 40° C. seven days, in words
Procedure: Fresh raw carrots were disrupted by a mixer, and saccharides were respectively added to the mixture and dissolved therein to give a concentration of 10%, d.s.b. The solutions were dried under a reduced pressure at 40° C. for two days, dried in vacuo at the same temperature for 24 hours, and pulverized by a mixer into powdery carrot compositions. […] An about 100 g each of the compositions was placed and sealed in a 500-ml polystyrene container, and stored at 40° C. for seven days. The active oxygen eliminating activities of the compositions before and after storage were compared with each other. The active oxygen eliminating activity was assayed by the nitro blue tetrazolium (NBT) test by Toshio IMANARI et al. in Igakuno Ayumi, Vol. 101, pp. 496-497 (1977), and the level of superoxide, formed in a xanthine-xanthine oxidase system, was assayed by quantifying calorimetrically the content of formazan formed by reducing NBT. As a control, refined water was used as a test solution. One unit activity of active oxygen eliminating activity was defined as that inhibited 50% formazan formation as compared with the control. […] Thus cyclotetrasaccharide is preferable as an effective ingredient for a reduction inhibitory agent for active oxygen eliminating activity.

[2] = test system: superoxide, formed in a hypoxanthine-xanthine oxidase system; assay: Active oxygen eliminating activity of powdery carrot compositions with saccharides before and after storage, electron spin resonance (ESR) test (Experiment 4); conditions: powdery carrot composition
Procedure: Fresh raw carrots were disrupted as Experiment 3, and saccharides were respectively added to the mixture and dissolved therein to give a concentration of 10%, d.s.b. The solutions were dried under a reduced pressure at 40° C. for one day, dried in vacuo at the same temperature for 17 hours, and pulverized by a mixer into powdery carrot compositions. […] About 100 g each of the compositions was placed and sealed in a 500-ml polystyrene container, and stored at 40° C. for seven or fourteen days. The active oxygen eliminating activities of the compositions before and after storage were compared with each other. The active oxygen eliminating activity was assayed by the electron spin resonance (ESR) test by Toshihiko OZAWA in BUNSEKI, Vol. 2, pp. 68-74 (2000), and the level of superoxide, formed in a hypoxanthine-xanthine oxidase system, was assayed by the spin-trapping with 5,5-dimethyl-1-pyrroline-N-oxide in ESR.

[3] = test system: active oxygen; assay: Active oxygen eliminating activity of superoxide dismutase and antioxidants in cyclotetrasaccharide solution or water before and after storage (Experiment 7); conditions: for Activity (unit/mg antioxidant) After one storage / Residual activity (%): dark; for Activity (unit/mg antioxidant) Before storage: superoxide dismutase 5 μg/ml, α-glucosyl hesperidin and α-glucosyl rutin 10 mg/ml, catechin 50 μg/ml
Procedure: In one milliliter of 30% (w/v) cyclotetrasaccharide solution, which is prepared by using cyclotetrasaccharide obtained in Experiment 2, was dissolved five micrograms (μ g) of superoxide dismutase from a horseradish commercialized by Sigma Chemical Co., St. Louis, USA, 10 mg of α-glucosyl hesperidin commercialized by Hayashibara Biochemical Laboratories, Inc., Okayama Japan, 10 mg of α-glucosyl rutin commercialized by Hayashibara Biochemical Laboratories, Inc., Okayama, Japan, 250 μg of gallic acid commercialized by Wako Pure Chemical Industries, Ltd., Tokyo, Japan, or 50 μg of catechin to obtain a liquid composition. Each of the compositions was placed in a glass test tube, sealed with a rubber cap, and stored under a dark condition. As a control, water was used in place of the cyclotetrasaccharide solution.

[4] = cyclotetrasaccharide 0% (water), 80° C. 5 days, α-glucosyl hesperidin, α-glucosyl rutin 10 mg/ml, gallic acid 250 μg/ml
[5] = cyclotetrasaccharide 30%, 80° C. 5 days, α-glucosyl hesperidin, α-glucosyl rutin 10 mg/ml, gallic acid 250 μg/ml
[6] = cyclotetrasaccharide concentration 0% (water), gallic acid 250 μg/ml
[7] = cyclotetrasaccharide concentration 30%, gallic acid 250 μg/ml
[8] = cyclotetrasaccharide 0% (water), 60° C. 17 hours, 5 μg/ml
[9] = cyclotetrasaccharide 30%, 60° C. 17 hours, 5 μg/ml
[10] = cyclotetrasaccharide 0% (water), 25° C. 20 hours, 50 μg/ml
[11] = cyclotetrasaccharide 30%, 25° C. 20 hours, 50 μg/ml

Compound | Activity (unit/g) After storage [1] [unit/g] | Percentage of residual activity (%) [1] [%] | Activity (unit/g) Before storage [1] [unit/g] | Activity (unit/mg antioxidant) Before storage [3, 6] | Activity (unit/mg antioxidant) Before storage [3, 7] | other results
α-glucosyl hesperidin |  |  |  | 3.8 unit/mg antioxidant | 4.0 unit/mg antioxidant | Activity (unit/mg antioxidant) After one storage [3, 4]: 1.0 unit/mg antioxidant; Residual activity (%) [3, 4]: 26%; Activity (unit/mg antioxidant) After one storage [3, 5]: 2.1 unit/mg antioxidant; Residual activity (%) [3, 5]: 53%
Superoxide dismutase |  |  |  | 10,000 unit/mg antioxidant | 12,000 unit/mg antioxidant | Activity (unit/mg antioxidant) After one storage [3, 8]: 4,600 unit/mg antioxidant; Residual activity (%) [3, 8]: 46%; Activity (unit/mg antioxidant) After one storage [3, 9]: 7,300 unit/mg antioxidant; Residual activity (%) [3, 9]: 61%
catechin |  |  |  | 470 unit/mg antioxidant | 450 unit/mg antioxidant | Activity (unit/mg antioxidant) After one storage [3, 10]: 2.2 unit/mg antioxidant; Residual activity (%) [3, 10]: 0%; Activity (unit/mg antioxidant) After one storage [3, 11]: 240 unit/mg antioxidant; Residual activity (%) [3, 11]: 53%
O=C(O)c1cc(O)c(O)c(O)c1 [Gallic acid, gallic acid] |  |  |  | 590 unit/mg antioxidant | 600 unit/mg antioxidant | Activity (unit/mg antioxidant) After one storage [3, 4]: 390 unit/mg antioxidant; Residual activity (%) [3, 4]: 66%; Activity (unit/mg antioxidant) After one storage [3, 5]: 450 unit/mg antioxidant; Residual activity (%) [3, 5]: 75%
OCC1OC2OCC3O[C@H](O[C@H]4C(O)C(CO)OC(OCC5O[C@H](O[C@@H](C1O)C2O)C(O)C(O)[C@@H]5O)C4O)C(O)C(O)[C@@H]3O (some centres unmarked) [crystalline cyclotetrasaccharide hydrate] |  |  |  |  |  | change of the active oxygen eliminating activity on storage of a powder mixture ([3]; powdery crystalline cyclotetrasaccharide hydrate mixed dry with either of the powdery antioxidants, storage test as in Table 5): almost no change of the active oxygen eliminating activity
α-glucosyl rutin |  |  |  | 25 unit/mg antioxidant | 26 unit/mg antioxidant | Activity (unit/mg antioxidant) After one storage [3, 4]: 18 unit/mg antioxidant; Residual activity (%) [3, 4]: 72%; Activity (unit/mg antioxidant) After one storage [3, 5]: 22 unit/mg antioxidant; Residual activity (%) [3, 5]: 85%

Continued, in another order:

Activity (unit/g) After storage [1] [unit/g] | Percentage of residual activity (%) [1] [%] | Activity (unit/g) Before storage [1] [unit/g] | Compound | Activity (unit/mg antioxidant) Before storage [3, 6] | Activity (unit/mg antioxidant) Before storage [3, 7] | other results
180 | 33 | 550 | OC[C@H]1O[C@H](O[C@H]2[C@H](O)[C@@H](O)C(O)O[C@@H]2CO)[C@H](O)[C@@H](O)[C@@H]1O (mixture of isomers) [Maltose, maltose] |  |  | Activity (unit/g) Before storage ([2]; saccharide added at 10% d.s.b., before storage): 236 unit/g; Activity (unit/g) After two weeks storage ([2]; stored at 40° C. for fourteen days): 53 unit/g; percentage of residual activity After two weeks storage ([2]; stored at 40° C. for fourteen days, numerals in parentheses): 22%; Activity (unit/g) After one week storage ([2]; stored at 40° C. for seven days): 56 unit/g; percentage of residual activity After one week storage ([2]; stored at 40° C. for seven days, numerals in parentheses): 24%
180 | 27 | 660 | OC[C@H]1O[C@@](CO)(O[C@H]2O[C@H](CO)[C@@H](O)[C@H](O)[C@H]2O)[C@@H](O)[C@@H]1O [Sucrose, sucrose] |  |  | 
360 | 51 | 710 | pullulan |  |  | residual percentage / reduction inhibitory activity for active oxygen eliminating activity among the saccharides tested [1]: relatively-high reduction inhibitory activity
26 | 5 | 560 | OC[C@@H](O)[C@@H](O)[C@H](O)[C@@H](O)CO [Sorbitol, sorbitol] |  |  | 
380 | 66 | 580 | OC[C@H]1O[C@H](O[C@H]2O[C@H](CO)[C@@H](O)[C@H](O)[C@H]2O)[C@H](O)[C@@H](O)[C@@H]1O [Trehalose, trehalose] |  |  | residual percentage / reduction inhibitory activity for active oxygen eliminating activity among the saccharides tested [1]: highest residual percentage
59 | 11 | 520 | OC[C@@H](O)[C@@H](O)[C@H](O)[C@H](O)CO [Mannitol, mannitol] |  |  | 

Source: patent publication US20070218189A1, “Reduction inhibitory agent for active oxygen eliminating-activity” (KABUSHIKI KAISHA HAYASHIBARA SEIBUTSU KAGAKU KENYUJO, priority 2001, published 2007)
